Laboratory results: the supplement of paper PMC10307832

Legend:
Experiment in all cases: relative viability (nuclei count vs DMSO), 5 days (fraction); higher = more cells survive
Crenolanib + Bortezomib = compound: CC1(COc2ccc3c(c2)ncn3-c2ccc3cccc(N4CCC(N)CC4)c3n2)COC1 [Crenolanib] + CC(C)C[C@H](NC(=O)[C@H](Cc1ccccc1)NC(=O)c1cnccn1)B(O)O [Bortezomib] (partner 0.002 µM)
Method in brief: (§1)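 Relative viability is defined as nuclei in treated wells over nuclei in vehicle wells. Duplicate plates were run and medians reported. Lung cancer cell lines in 1536-well plates were dosed by pin tool one day after seeding, with one drug or with a fixed anchor-drug dose plus five library-drug doses (not always all listed) in √10 steps, and nuclei were counted after 5 days.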

Crenolanib + Dasatinib = compound: CC1(COc2ccc3c(c2)ncn3-c2ccc3cccc(N4CCC(N)CC4)c3n2)COC1 [Crenolanib] + Cc1nc(Nc2ncc(C(=O)Nc3c(C)cccc3Cl)s2)cc(N2CCN(CCO)CC2)n1 [Dasatinib] (partner 0.075 µM)
Method in brief: as §1

Tivantinib + Trametinib = compound: O=C1NC(=O)[C@@H](c2cn3c4c(cccc24)CCC3)[C@@H]1c1c[nH]c2ccccc12 [Tivantinib] + CC(=O)Nc1cccc(-n2c(=O)n(C3CC3)c(=O)c3c(Nc4ccc(I)cc4F)n(C)c(=O)c(C)c32)c1 [Trametinib] (partner 0.02 µM)
Method in brief: as §1

Tivantinib + Foretinib = compound: O=C1NC(=O)[C@@H](c2cn3c4c(cccc24)CCC3)[C@@H]1c1c[nH]c2ccccc12 [Tivantinib] + COc1cc2c(Oc3ccc(NC(=O)C4(C(=O)Nc5ccc(F)cc5)CC4)cc3F)ccnc2cc1OCCCN1CCOCC1 [Foretinib] (partner 0.25 µM)
Method in brief: as §1

Cell Line | relative viability (Crenolanib + Bortezomib; first compound 0.01 µM) | relative viability (Crenolanib + Bortezomib; first compound 0.03162 µM) | relative viability (Crenolanib + Bortezomib; first compound 0.1 µM) | relative viability (Crenolanib + Bortezomib; first compound 0.3162 µM) | relative viability (Crenolanib + Bortezomib; first compound 1 µM) | relative viability (Crenolanib + Dasatinib; first compound 0.01 µM) | relative viability (Crenolanib + Dasatinib; first compound 0.03162 µM) | relative viability (Crenolanib + Dasatinib; first compound 0.1 µM) | relative viability (Crenolanib + Dasatinib; first compound 0.3162 µM) | relative viability (Crenolanib + Dasatinib; first compound 1 µM) | relative viability (Tivantinib + Trametinib; first compound 0.01 µM) | relative viability (Tivantinib + Trametinib; first compound 0.03162 µM) | relative viability (Tivantinib + Trametinib; first compound 0.1 µM) | relative viability (Tivantinib + Trametinib; first compound 0.3162 µM) | relative viability (Tivantinib + Foretinib; first compound 0.01 µM) | relative viability (Tivantinib + Foretinib; first compound 0.03162 µM) | relative viability (Tivantinib + Foretinib; first compound 0.1 µM) | relative viability (Tivantinib + Foretinib; first compound 0.3162 µM)
EKVX | 1.03 | 0.994 | 0.974 | 1.2 | 1.08 | 0.519 | 0.473 | 0.561 | 0.591 | 0.512 | 0.408 | 0.437 | 0.325 | 0.146 | 0.714 | 0.841 | 0.761 | 
NCI-H1666 | 0.9 | 0.711 | 0.858 | 1.01 | 0.667 | 0.791 | 0.854 | 0.745 | 0.819 | 0.745 | 0.815 | 0.786 | 0.827 | 0.814 | 0.936 | 1.01 | 0.979 | 0.827
NCI-H1734 | 0.979 | 1.09 | 0.919 | 1.22 | 0.93 | 0.502 | 0.427 | 0.468 | 0.465 | 0.453 | 0.611 | 0.676 | 0.677 | 0.604 | 0.952 | 0.937 | 0.743 | 0.598
A-427 | 0.961 | 1.12 | 0.987 | 1.01 | 1.03 | 0.693 | 0.723 | 0.699 | 0.688 | 0.64 | 0.795 | 0.786 | 0.737 | 0.673 | 1.06 | 1.24 | 0.97 | 0.848
NCI-H2405 | 0.998 | 0.964 | 0.921 | 1.05 | 0.976 | 0.225 | 0.214 |  | 0.181 | 0.196 | 0.771 | 0.63 | 0.615 | 0.597 | 1.16 | 1.07 | 1.05 | 0.98
NCI-H1437 | 0.48 | 0.408 | 0.557 | 0.515 | 0.526 | 0.403 | 0.369 | 0.361 | 0.377 | 0.42 | 0.637 | 0.464 | 0.441 | 0.514 | 1.26 | 1.34 | 1.3 | 1.25
RERF-LC-KJ | 1.26 | 1.15 | 1.11 | 1.1 | 1.12 | 0.81 | 0.961 | 0.933 | 0.956 | 0.733 | 0.875 | 0.845 | 0.855 | 0.688 | 0.911 | 0.908 | 0.85 | 0.883
NCI-H23 | 0.892 | 1.2 | 0.865 | 1.16 | 0.696 | 0.804 | 0.778 | 0.71 | 0.848 | 0.643 | 0.509 | 0.352 | 0.37 | 0.347 | 1.08 | 0.957 | 1 | 0.801
HCC-15 | 1.15 | 1.01 | 0.909 | 1.05 | 0.956 | 0.645 | 0.678 | 0.66 | 0.701 | 0.545 | 0.387 | 0.371 | 0.36 | 0.337 | 1.04 | 1.01 | 0.991 | 0.986
PC-14 | 0.908 | 0.809 | 0.785 | 0.995 | 0.948 | 0.289 | 0.262 | 0.259 | 0.263 | 0.266 | 0.671 | 0.811 | 0.753 | 0.452 | 0.93 | 0.893 | 0.984 | 1.05
HCC-827 | 1.08 | 0.962 | 0.963 | 1.04 | 0.933 | 0.338 | 0.33 | 0.398 | 0.366 | 0.396 | 0.54 | 0.576 | 0.461 |  | 1.01 | 1.12 | 0.957 | 0.485
LC-2-ad | 1.09 | 0.959 | 0.98 | 1.18 | 0.99 | 0.707 | 0.555 | 0.486 | 0.741 | 0.533 | 0.912 | 0.879 | 0.851 | 0.903 | 0.849 | 0.924 | 0.85 | 0.597
NCI-H441 | 0.29 |  | 0.535 | 0.446 | 0.557 | 0.555 | 0.669 | 0.601 | 0.681 | 0.578 | 0.476 | 0.405 | 0.448 | 0.352 | 0.749 | 1.1 | 1.01 | 0.876
NCI-H322M | 1.36 | 0.923 | 1.1 | 1.27 | 1.4 | 0.241 | 0.258 | 0.255 | 0.251 | 0.303 | 0.486 | 0.471 | 0.449 |  | 1.02 | 0.922 | 0.943 | 
EPLC-272H |  | 0.766 | 0.747 | 0.887 | 0.874 | 0.35 | 0.349 | 0.317 | 0.391 | 0.532 | 0.346 | 0.27 | 0.265 | 0.227 | 0.776 | 0.593 | 0.787 | 0.0941
COR-L23 | 0.983 | 1.16 | 0.921 | 1.13 | 1.03 | 0.497 | 0.466 | 0.475 | 0.54 | 0.417 | 0.634 | 0.558 | 0.545 | 0.661 | 1.01 | 0.953 | 0.893 | 1.04
NCI-H2126 | 1.09 | 1.17 | 1.13 | 1.15 | 1.1 | 0.595 | 0.635 | 0.604 | 0.74 | 0.616 | 0.522 | 0.549 | 0.573 | 0.545 | 1.16 | 1.12 | 1.04 | 0.829
LCLC-103H | 1.05 | 1.02 | 0.922 | 0.954 | 0.976 | 0.444 | 0.454 | 0.477 | 0.457 | 0.428 | 0.6 | 0.736 | 0.69 | 0.668 | 0.783 | 0.68 | 0.735 | 0.663
